Source: patent publication US11160788B2, “Caspase-1 inhibition and uses thereof for prevention and treatment of neurological conditions” (priority 2016, dated 2021)
Entries after “also recorded” stand apart in the source; their conditions may differ.

Tests used:
recombinant human Casp1 = biological target: T1, recombinant human Casp1 (Homo sapiens, UniProt P29466); assay: Caspase inhibition IC50, recombinant human Casp1; type: biochemical; settings: read-out: IC50 against human Casp1
T1 sequence (P29466 120-297 limits assumed): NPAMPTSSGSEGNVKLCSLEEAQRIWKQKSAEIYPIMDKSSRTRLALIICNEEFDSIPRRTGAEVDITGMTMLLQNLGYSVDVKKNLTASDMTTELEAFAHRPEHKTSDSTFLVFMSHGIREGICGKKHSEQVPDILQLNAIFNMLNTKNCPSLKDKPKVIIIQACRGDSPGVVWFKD
T1 sequence (P29466 317-404 limits assumed): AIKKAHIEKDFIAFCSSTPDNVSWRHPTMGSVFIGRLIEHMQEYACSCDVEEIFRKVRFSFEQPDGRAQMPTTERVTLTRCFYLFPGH
Description: FIG. 14: Selectivity and blood brain permeability of VX-765 and VRT-043198. (a-b) IC50 of VX-765 (a) and VRT-043198 (b) against human Casp1-10. (c-d) IC50 of VX-765 (c) and VRT-043198 (d) against mouse Casp1 and Casp11. (e) Blood brain barrier permeability and presence of VX-765 and VRT-043198 in 3 wild type and 4 J20 mice brain cortex and hippocampus and in plasma. Ratios of brain levels to plasma levels are calculated.

J20 mice [1] = assay: Iba1 microglia immunohistochemistry, treated symptomatic J20 mice brains; type: in vivo, mouse
Description: (§1) FIG. 10: VX-765 reverses neuroinflammation in J20 mice. (a) Iba-1 positive microglia immunohistographs in the stratum lacunosum molecular area of the hippocampus and S1 of cortex (Scale bar=50 μm). (b) Stereological quantification of Iba-1^+ microglia for WT+Vehicle (n=6), J20+Vehicle (n=5), and J20+VX-765 (n=4) in the hippocampus from the pyramidal cell layer to the stratum lacunosum molecular layer (F(2,11)=58, p<0.0001) and cortex (F(2,11)=39.95, p<0.0001, ANOVA, Dunnett's post-hoc compared to J20+Vehicle, ***p<0.001). (c) Average percentage distribution of morphological microglial subtypes 1 (black (lowermost) bar), 2 (light grey bar), 3 (dark grey bar) and 4 (black (uppermost) bar). (d) II1-β pg/mg levels measured by ELISA in pre-treated J20 at 5 months of age and in treated WT and J20 8 months of age. (e) Astroglial GFAP^+ immunohistographs.
(§2) To assess AD-like pathology, immunohistochemical analyses were performed to detect amyloid deposition (anti-AβF25276)^5,6, microglial (Iba1) activation^7, astrogliosis (GFAP), synaptophysin protein levels on coronal brain sections. Multiplex MSD ELISA was used to assess Aβ levels and 38,40, and 42 subtypes, and II-1β brain levels. RT-PCR was used to assess levels of human APP^Sw/Ind.

J20 mice [2] = assay: ELISA of II-1β and other cytokines, treated symptomatic J20 mice; type: in vivo, mouse
Description: as §1
FIG. 18: ELISA measures of cytokines in vehicle-treated WT and J20 mice and VX-765-treated J20 mice. (a) Plasma levels of II-1β in mice after T3. (b) Cytokine levels in vehicle-treated WT and J20 and in VX-765-treated J20 brain hippocampi and cortex. (c) GFAP immunostaining density in vehicle-treated WT (n=6) and J20 (n=5) and in VX-765-treated J20 (n=4) brain hippocampi (F(2,12)=5.234, p=0.0232, ANOVA, Dunnett's post-hoc compared to WT+Vehicle, *p<0.05) and cortex. (d) Western blots and quantitative analyses of GFAP in vehicle-treated WT and J20 and in VX-765-treated J20 brain hippocampi and cortex.
as §2

J20 mice [3] = assay: Open field, preventive treatment of pre-symptomatic J20 mice; type: in vivo, mouse
Description: FIG. 21: Open-field assessment to assess hyperactivity in J20 mice. Mice were treated with vehicle (WT and J20) or 50 mg/kg VX-765 (J20) at 2 months of age for 1 month (3 injections per week×4 weeks=12 injections). Hyperactivity was assessed by measuring the distance travelled (a), the number of quadrant entries (b), and the % time moving (c), while anxiety was assessed by the % time spent in periphery (d).
Studies are done on 8 (pre-symptomatic) week old J20 and littermate WT controls injected with 50 mg/Kg VX-765 or vehicle. The 8 week old mice are injected for 4 weeks (3 injections per week) and monitored for memory deficits at 16 weeks of age and every 4 weeks thereafter until the mice reach 8 months of age. VX-765 delays the onset of cognitive deficits by at least 5 months in the J20 mouse.
(§3) We directly tested whether pre-symptomatic inhibition of inflammation in a mouse genetic model of Alzheimer disease can stem the progression of memory and behavioral deficits, and Alzheimer disease-like pathology. The J20 amyloid precursor protein Swedish/Indiana mutant mouse was treated at 2 months of age for a one month period with 50 mg/Kg Caspase-1 inhibitor VX-765 (FIG. 22a).

J20 mice [4] = assay: Synaptophysin immunostaining, preventive treatment of J20 mice; type: in vivo, mouse
Description: FIG. 4: Immunostainings of mice hippocampus at 4 months of age (PREVENTION GROUP) with microglial Iba-1, astrocyte GFAP, and synaptic synaptophysin antibodies.
FIG. 27: Synaptophysin immunopositive staining in the hippocampus of mice brains at different times of washout. All sections were immunostained together and automatically with Dako immunostainer.
as §3

**Q.** `CCO[C@@H]1OC(=O)C[C@@H]1NC(=O)[C@@H]1CCCN1C(=O)[C@@H](NC(=O)c1ccc(N)c(Cl)c1)C(C)(C)C` [VX-765, (S)-1-((S)-2-{[1-(4-amino-3-chloro-phenyl)-methanoyl]-amino}-3,3-dimethyl-butanoyl)-pyrrolidine-2-carboxylic acid ((2R,3S)-2-ethoxy-5-oxo-tetrahydro-furan-3-yl)-amide] was tested. Which IC50 (recombinant human Casp1) did it give?
**A.** Its IC50 is 3.68 nM.

**Q.** And the “Iba1-positive microglia in hippocampus CA1” value (J20 mice [1]; 50 mg/kg, 12 injections, 8 month old J20)?
**A.** Its value is “normalized; also recorded: reduced to WT levels”.

**Q.** And the “number of Iba1+ microglia, pyramidal cell layer to stratum lacunosum molecular layer of CA1” value (J20 mice [1]; 50 mg/kg, after Treatment 3, stereological quantification)?
**A.** The value was “returned to normal”.

**Q.** What about the “microglial activation measured morphologically” value (J20 mice [1]; hippocampus and cortex, vs vehicle-treated J20) of the same molecule?
**A.** Its value is “more resting, and less activated, microglia”.

**Q.** What about the “TNFα protein level in hippocampi” value (J20 mice [2]) of the same molecule?
**A.** The value was “returned to normal”.

**Q.** What about the “II-1β level in hippocampus” value (J20 mice [2]; 50 mg/kg, after Treatment 3) of the same molecule?
**A.** The value was “reduced after VX-765 treatment”.

**Q.** And the “II-1β level in plasma” value (J20 mice [2]; after Treatment 3)?
**A.** The value was “No changes were seen”.

**Q.** And the “other inflammatory protein levels (TNF-α, KC-GRO, IFN-γ)” value (J20 mice [2]; brain hippocampi and cortex)?
**A.** The value was “No significant difference”.

**Q.** What about the “open field hyperactivity (distance travelled, quadrant entries)” value (J20 mice [3]; 4 months of age (4 week washout)) of the same molecule?
**A.** Its value is “normal behavior at 4 months of age; also recorded: behave as the vehicle-treated WT mice”.

**Q.** What about the open field hyperactivity (J20 mice [3]; 5 months of age (8 week washout) and thereafter) of the same molecule?
**A.** The open field hyperactivity was “hyperactivity returned by 5 months of age; also recorded: lost at the 8 week washout assessment and thereafter”.

**Q.** What about the “% time of movement” value (J20 mice [3]; 8 week to 20 week washout) of the same molecule?
**A.** The value was “did not alter”.

**Q.** What about the synaptophysin levels (J20 mice [4]; 4 month old J20 brains) of the same molecule?
**A.** Its synaptophysin levels is “impressive preservation of synaptophysin levels”.

**Q.** What about the synaptophysin immunostaining (J20 mice [4]; hippocampus, different times of washout) of the same molecule?
**A.** The synaptophysin immunostaining was “partly re-established”.
